According to ChEMBL document CHEMBL1146714, “Peptidyl hydroxamic acids as methionine aminopeptidase inhibitors” (Bioorg Med Chem Lett, 2004):

What was measured:
[1] = Inhibitory activity against methionine Escherichia coli aminopeptidase (MetAP)
[2] = target: Methionine aminopeptidase 2 (Homo sapiens, UniProt P50579); assay: Inhibitory activity against Methionine aminopeptidase 2
Chain of Methionine aminopeptidase 2 (P50579 whole entry): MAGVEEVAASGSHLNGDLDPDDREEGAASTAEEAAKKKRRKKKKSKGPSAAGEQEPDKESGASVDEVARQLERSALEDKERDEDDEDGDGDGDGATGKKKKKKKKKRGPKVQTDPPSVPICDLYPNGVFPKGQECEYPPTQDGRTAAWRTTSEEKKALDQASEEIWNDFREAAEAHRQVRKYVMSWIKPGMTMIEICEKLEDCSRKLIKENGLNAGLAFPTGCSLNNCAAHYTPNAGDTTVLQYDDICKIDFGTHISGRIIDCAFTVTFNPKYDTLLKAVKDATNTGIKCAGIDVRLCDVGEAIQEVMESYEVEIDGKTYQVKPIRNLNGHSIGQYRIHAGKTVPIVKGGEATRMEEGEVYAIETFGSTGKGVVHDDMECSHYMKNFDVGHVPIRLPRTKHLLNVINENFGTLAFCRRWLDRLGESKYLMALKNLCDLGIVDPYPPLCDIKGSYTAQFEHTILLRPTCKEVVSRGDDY

Row | Ki [2] [µM] | Structure (SMILES) | Ki [1] [µM]
1 |  | CCCC[C@H](N)C(=O)N(O)CCC(=O)NCCc1ccccn1 | 48
2 | 164 | CCCC[C@H](N)C(=O)N(O)CC(=O)NCCc1ccccn1 | 59
3 | 600 | C[C@@H](N)C(=O)N(O)CC(=O)O | 8.8
4 |  | CSCC[C@H](N)C(=O)N(O)CC(=O)NCCc1ccccn1 | 2.5
5 | 1300 | CSCC[C@H](N)C(=O)N(O)CC(=O)O | 170
